From patent US7642400B2, “Protein kinase C iota” (Mayo Foundation for Medical Education and Research, priority 2004, dated 2010)
Where a name gives a salt, the structure may show the parent alone. Read-outs that look alike come from different tables or passages of the source.

Target: T1, interaction of PKCι polypeptides with PAR6 polypeptides (Homo sapiens, UniProt P41743)
T1 construct: amino acids 1-113 or a full-length PKCι polypeptide; 6xHis; made in house
T1 sequence (P41743 10-122): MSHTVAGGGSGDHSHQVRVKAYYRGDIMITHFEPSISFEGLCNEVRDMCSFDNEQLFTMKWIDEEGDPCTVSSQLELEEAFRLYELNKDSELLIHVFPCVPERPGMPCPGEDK
Assay: Secondary screen: PYN bound to plate-immobilised biotin-tagged PAR6
Type: binding
Settings: for dose-response analysis using the secondary screening assay: increasing amounts, e.g. 0, 0.1, 1, 10, 100, and 100 μM
Description: Multiple test compounds that were classified as hits in the primary screen as well as additional related compounds were evaluated in a secondary screen designed as follows. Briefly, a 96-well microtiter plate coated with streptavidin (Nunc #436014) was incubated for 2-4 hours at room temperature with 100 μl of a 20-30 μg/ml solution of biotin-tagged PAR6 (whole polypeptide) in phosphate-buffered saline containing Tween-20 (PBST). Plates were washed twice with PBST, then once with incubation buffer (50 mM Tris, pH 8.0; 135 mM NaCl; 10% glycerol; 0.002% EDTA). Incubation buffer (50 μl) was added to each well. The compounds to be tested were added (10 μl) followed by PYN (50 μl) diluted in incubation buffer to an approximate concentration of 4000-5000 relative fluorescent units per 50 μl. Plates were incubated overnight at 4° C. Plates were washed twice with incubation buffer, after which 50 μl incubation buffer was added to retain moisture in the wells. The amount of PYN bound on the plates was determined by measuring yellow fluorescence (532/526) in a Typhoon imager. Fluorescence was quantitated by Softmax Pro software.
A dose-response analysis was performed using the secondary screening assay and increasing amounts (e.g., 0, 0.1, 1, 10, 100, and […]) of gossypol, hexestrol, thimerosal, ebselen, ATG, ATM, ellagic acid, cisplatin, apomorphine, or phenylmercuric acetate.

[1] = amount of PYN bound to biotin-tagged PAR6 plates

Molecule	Secondary Screen [1]	further results
C[n+]1c2cc(N)ccc2cc2ccc(N)cc21.[Cl-] [Acriflavinium hydrochloride]	No effect	
N=C(N)NC(=O)c1nc(Cl)c(N)nc1N [Amiloride]	No effect	
CCN(CC)Cc1cc(Nc2ccnc3cc(Cl)ccc23)ccc1O [Amodiaquine]	No effect	
CCCc1ncc(C[n+]2ccccc2C)c(N)n1 [Amprolium]	No effect	
CN1CCc2cccc3c2[C@H]1Cc1ccc(O)c(O)c1-3 [Apomorphine]	Confirmed	Secondary Screen (amount of PYN bound to biotin-tagged PAR6 plates, listed as apomorphine): confirmed; dose-response analysis using the secondary screening assay: dose-dependent response was detected
COc1ccc(C(Cl)=C(c2ccc(OC)cc2)c2ccc(OC)cc2)cc1 [Chlorotrianisene]	No effect (related compound	
Oc1cc(O)c2c(c1)O[C@H](c1ccc(O)c(O)c1)[C@@H](O)C2 [Cianidanol]	No effect (related compound	
N.N.[Cl][Pt][Cl] [Cisplatin]	Confirmed	Secondary Screen (amount of PYN bound to biotin-tagged PAR6 plates, listed as cisplatin): confirmed; dose-response analysis using the secondary screening assay: dose-dependent response was detected
Cc1cc(N)c2ccccc2[n+]1CCCCCCCCCC[n+]1c(C)cc(N)c2ccccc21 [Dequalinium chloride]	No effect	
O=c1oc2c(O)c(O)cc3c(=O)oc4c(O)c(O)cc1c4c23 [Ellagic acid]	Confirmed	Secondary Screen (amount of PYN bound to biotin-tagged PAR6 plates, listed as ellagic acid): confirmed; dose-response analysis using the secondary screening assay: dose-dependent response was detected
CNC[C@H](O)c1ccc(O)c(O)c1 [Epinephrine bitartrate]	No effect	
CCC(=O)O[C@H]1[C@H](O[C@@H]2[C@@H](C)[C@H](O[C@H]3C[C@@](C)(OC)[C@@H](O)[C@H](C)O3)[C@@H](C)C(=O)O[C@H](CC)[C@@](C)(O)[C@H](O)[C@@H](C)C(=O)[C@H](C)C[C@@]2(C)O)O[C@H](C)C[C@@H]1N(C)C [Erythromycin propionate lauryl sulfate]	No effect	
C[C@]12CC[C@@H](O)C[C@H]1CC[C@@H]1[C@@H]2CC[C@]2(C)C(=O)CC[C@@H]12 [Etiocholanolone]		Secondary Screen: No effect
Nc1nc2ncc(CNc3ccc(C(=O)N[C@@H](CCC(=O)O)C(=O)O)cc3)nc2c(=O)[nH]1 [Folic acid]	No effect	
O=C1OCCN1/N=C/c1ccc([N+](=O)[O-])o1 [Furazolidone]	No effect	
O=C(O)c1cc(O)ccc1O [Gentisic acid]	No effect	
O=C(OCC(O)CO)c1ccccc1Nc1ccnc2cc(Cl)ccc12 (stereo not shown) [Glafenine]	No effect	
COc1ccc2c(c1OC)C(=O)O[C@@H]2[C@H]1c2cc3c(cc2CCN1C)OCO3 [Hydrastine]	No effect	
O=C(O)c1cc2ccccc2c(Cc2c(O)c(C(=O)O)cc3ccccc23)c1O.OCCOCCN1CCN(C(c2ccccc2)c2ccc(Cl)cc2)CC1 [Hyydroxyzine pamoate]	No effect	
CC(C)NCC(O)c1ccc(O)c(O)c1 (stereo not shown) [Isoproterenol hydrochloride]	No effect	
CC(=O)/N=c1/sc(S(N)(=O)=O)nn1C [Methazolamide]	No effect	
CC[C@@H](CO)NC(=O)[C@@H]1C=C2c3cccc4[nH]cc(c34)C[C@H]2N(C)C1 [Methylergonovine]	No effect	
CC[C@@]1([C@@H]2O[C@@H]([C@H]3O[C@@](O)(CO)[C@H](C)C[C@@H]3C)C[C@@H]2C)CC[C@H]([C@]2(C)CC[C@]3(C[C@H](O)[C@@H](C)[C@@H]([C@@H](C)[C@@H](OC)[C@H](C)C(=O)O)O3)O2)O1 [Monensin, sodium]	No effect	

Molecule	Secondary Screen [1]	further results
COc1c(C)c2c(c(O)c1C/C=C(\C)CCC(=O)O)C(=O)OC2 [Mycophenolic acid]	No effect	
C[C@@H]1O[C@@H](O[C@H]2[C@H](Oc3cc(O)c4c(c3)O[C@H](c3ccc(O)cc3)CC4=O)O[C@H](CO)[C@@H](O)[C@@H]2O)[C@H](O)[C@H](O)[C@H]1O [Naringin]	No effect	
Nc1ccc(/N=N/c2ccccc2)c(N)n1 [Phenazopyridine]	No effect	
CC(=O)[O-].[Hg+][c]1ccccc1 [Phenylmercuric acetate]		Secondary Screen (amount of PYN bound to biotin-tagged PAR6 plates, acetate): Confirmed; Secondary Screen (amount of PYN bound to biotin-tagged PAR6 plates, listed as phenylmercuric acetate, acetate): confirmed; dose-response analysis using the secondary screening assay: dose-dependent response was detected
COc1cc(NC(C)CCCN)c2ncccc2c1 (stereo not shown) [Primaquine phosphate]	No effect	
CC(C)[N+](C)(CCOC(=O)C1c2ccccc2Oc2ccccc21)C(C)C [Propantheline bromide]	No effect	
CN1CCCN=C1/C=C/c1cccs1 [Pyrantel pamoate]	Confirmed	Secondary Screen (amount of PYN bound to biotin-tagged PAR6 plates, listed as pyrantel pamoate): confirmed
O=C1C=CC(=C(c2ccc(O)cc2)c2ccc(O)cc2)C=C1 [Rosolic acid]	No effect	
CC1=C(CC(=O)O)c2cc(F)ccc2/C1=C\c1ccc([S+](C)[O-])cc1 (stereo not shown) [Sulindac]	No effect	
C[CH2][Hg][S]c1ccccc1C(=O)[O-].[Na+] [Thimerosal]	Confirmed	Secondary Screen (amount of PYN bound to biotin-tagged PAR6 plates, listed as thimerosal): confirmed; dose-response analysis using the secondary screening assay: dose-dependent response was detected
CC1=C(/C=C/C(C)=C/C=C/C(C)=C/C(=O)O)C(C)(C)CCC1 [Tretinon]	No effect	
CN(C)CCCN1c2ccccc2Sc2ccc(C(F)(F)F)cc21 [Triflupromazine]	No effect	
C[C@]12CC[C@@H]3c4ccc(O)cc4CC[C@H]3[C@@H]1CC[C@@H]2O [b-estradiol]	had no effect)	
CC1=C(C(=O)O)N2C(=O)[C@@H](NC(=O)[C@H](N)c3ccc(O)cc3)[C@H]2SC1 [cefadroxil]	had no effect)	
[H]/N=C(\N/C(=N/[H])NCCCCCCNC(=N)NC(=N)Nc1ccc(Cl)cc1)Nc1ccc(Cl)cc1 [chlorhexidine]	No effect	
O=C(CCCN1CC=C(n2c(=O)[nH]c3ccccc32)CC1)c1ccc(F)cc1 [droperidol]	droperidol had no effect)	
CCn1cc(C(=O)O)c(=O)c2cc(F)c(N3CCNCC3)nc21 [enoxacin]	lomefloxacin had no effect)	
COc1ccc([C@@H]2CC(=O)c3c(O)cc(O[C@@H]4O[C@H](CO[C@@H]5O[C@@H](C)[C@H](O)[C@@H](O)[C@H]5O)[C@@H](O)[C@H](O)[C@H]4O)cc3O2)cc1O [hespiridin]	hespiridin had no effect)	
CC[C@H](c1ccc(O)cc1)[C@@H](CC)c1ccc(O)cc1 [hexestrol]	hexestrol was confirmed)	dose-response analysis using the secondary screening assay: dose-dependent response was detected
CCn1cc(C(=O)O)c(=O)c2cc(F)c(N3CCNC(C)C3)c(F)c21 (stereo not shown) [lomefloxacin]	lomefloxacin had no effect)	
Antimycin A	No effect	
Benzalkonium chloride	No effect	
Veratrine sulfate	No effect	
